Test results from US20110055943A1, “NOVEL THERAPEUTIC TARGETS IN INFLAMMATORY BOWEL DISEASE” (SALIX PHARMACEUTICALS, LTD., priority 2007, published 2011).

Legend:
CYP3A4 [1] = settings: two clinical studies; cited from earlier work
CYP3A = assay: Pharmacokinetics of MDZ in hPXR mice pretreated with RIFax; settings: hPXR mice, RIFax 10 mg/kg/day 3 days, MDZ 2.5 mg/kg oral
Procedure: Blood samples were collected from suborbital veins using heparinized tubes at pre-dose, 5, 10, 20, 30, 60, and 90 min after administration of MDZ. Serum was separated by centrifugation at 8,000 g for 10 min. For MDZ and 1′-OH-MDZ extraction, 50 μl of serum was mixed with 150 μl of phosphate-buffered saline, 200 μl of ethyl acetate, and 200 μl of methyl t-butyl ether. The mixture was centrifuged at 3,000 rpm for 5 min at 4° C. The organic layer was then transferred to a new tube, dried with N2, and reconstituted in 100 μl of 70% aqueous methanol and 30% H2O containing 0.1% formic acid. […] Pharmacokinetic parameters for MDZ and 1′-OH-MDZ were estimated from the plasma concentration-time data by a non-compartmental approach using WinNonlin (Pharsight, Mountain View, Calif.). The area under the serum concentration-time curve (AUC0-90 min) was calculated by the trapezoidal rule. The maximum concentration in serum (Cmax) and its corresponding time (Tmax) were obtained from the original data.

human PXR = target: T1, human PXR (Homo sapiens, UniProt O75469); assay: Cell-based reporter assay, DPX2 (hepG2) cell line, luciferase; settings: for increase in luciferase activity vs DMSO control: 24 h, DPX2 cells
T1 construct: host or cells: DPX2 (HepG2 derivative)
T1 sequence (O75469 1-434): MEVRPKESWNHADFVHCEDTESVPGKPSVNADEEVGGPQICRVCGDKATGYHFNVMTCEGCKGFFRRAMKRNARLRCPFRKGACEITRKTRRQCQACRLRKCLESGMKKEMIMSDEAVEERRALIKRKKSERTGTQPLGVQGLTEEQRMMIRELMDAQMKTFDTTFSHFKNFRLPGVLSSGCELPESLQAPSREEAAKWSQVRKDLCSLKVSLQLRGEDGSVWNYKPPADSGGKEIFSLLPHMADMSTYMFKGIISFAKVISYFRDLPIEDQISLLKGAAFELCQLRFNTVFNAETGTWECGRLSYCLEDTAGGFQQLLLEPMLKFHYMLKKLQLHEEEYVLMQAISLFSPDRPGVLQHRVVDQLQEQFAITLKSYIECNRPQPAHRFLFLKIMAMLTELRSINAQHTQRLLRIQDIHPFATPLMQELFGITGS
Procedure: A hepG2 cell line (DPX2) with stable expression of recombinant human PXR and a PXR-response element cloned in a luciferase vector was obtained from Puracyp Inc. (Carlsbad, Calif.). […] The cells were seeded according to the distributor's instruction. […] For cell-based reporter assay of nuclear receptors CAR, PPARα, PPARγ, and FXR, HCT116 cells were plated on 24-well plates (5×10^4 cells/well, cultured in DMEM containing 10% FBS), and transfected with the various expression vectors using Fugene transfection reagent (Roche, Indianapolis, Ind.). […] The mouse FXR vector was provided by Dr Christopher J. Sinal. […] A standard dual luciferase assay was used and normalized to a cotransfected control reporter (Promega, Madison, Wis.). Each in vitro assay was repeated at least three times.

[2] = system: PXR target genes (CYP3A11, GSTA1, MRP2, OATP2); assay: qPCR analysis of PXR target genes in hPXR mice
Procedure: RIF, a specific human PXR ligand, was used as positive control at 25 mg/kg/day (p.o.) for 3 days. […] Liver and small intestine were collected and frozen at −80° C. for further analysis.
RNA was extracted from different tissues using TRIzol reagent (Invitrogen, Carlsbad, Calif.). qPCR was performed using cDNA generated from 1 μg total RNA with SuperScript II Reverse Transcriptase kit (Invitrogen). PCR reactions were carried out using SYBR green PCR master mix (SuperArray) in an ABI Prism 7900HT Sequence Detection System (Applied Biosystems, Foster City, Calif.). Values were quantified using the Comparative CT method, and samples normalized to β-actin.

[3] = system: PXR target genes (CYP3A11, GSTA1, MRP2, OATP2); assay: qPCR analysis of PXR target genes in WT mice; type: in vivo, wild-type (WT) mice
[4] = Serum pharmacokinetics of RIF and RIFax in mice (p.o., i.p., i.v.; LC-MS/MS); type: in vivo
Procedure: The maximum concentration in serum (Cmax) was obtained from the original data. […] Intestinal contents were weighted, and homogenized in methanol (100 mg/ml). The homogenate was centrifuged at 14,000 rpm for 10 min at 4° C.
The mass spectrometer was operated in the turbo ion spray mode with positive ion detection. The turbo ion spray temperature was maintained at 300° C., and a voltage of 4.8 kV was applied to the sprayer needle. N2 was used as the turbo ion spray and nebulizing gas.

CYP3A4 [5] = settings: human hepatocytes; cited from earlier work
[6] = small intestine, 25 mg/kg/day p.o. 3 days
[7] = WT mice, small intestine, 25 mg/kg/day p.o. 3 days

Tmax of 1′-OH-MDZ in RIFax pretreated mice vs control group (CYP3A): significantly shorter
increase in luciferase activity vs DMSO control (human PXR; 1 μM): 2.1 fold
increase in luciferase activity vs DMSO control (human PXR; 10 μM): 6.7 fold
increase in luciferase activity vs DMSO control (human PXR; 100 μM): 25.2 fold
EC50 (human PXR; DPX2 cell line, read-out: EC50 for activation of hPXR): ~20 µM
CYP3A11, GSTA1, MRP2 and OATP2 mRNAs in small intestine ([2]; 25 mg/kg/day p.o. 3 days): all up-regulated
MRP2 in the gut ([2]; 25 mg/kg/day p.o. 3 days): only modestly induced
PXR target genes in the intestine ([2]; intestine, oral treatment): significant induction
GSTA1 in liver ([2]; liver, 25 mg/kg/day p.o. 3 days): increased
effect on hepatic PXR target genes ([2]; liver, oral treatment): no significant effect
Intestinal CYP3A11 increase compared to vehicle-treated mice [2, 6]: ~4 fold
Intestinal GSTA1 mRNA increase [2, 6]: 172%
Intestinal OATP2 mRNA increase [2, 6]: 3.4 fold
intestinal MRP2 mRNA [2, 6]: significant up-regulation
Intestinal CYP3A11 expression [3, 7]: inhibited
Intestinal GSTA1 mRNA increase [3, 7]: 87%
Intestinal OATP2 mRNA [3, 7]: no significant induction
intestinal MRP2 mRNA [3, 7]: significantly suppressed
effect on hepatic PXR target genes ([3]; wild-type mice, liver, oral treatment): no significant effect
AUC compared with RIF ([4]; mice, 10 mg/kg i.v.): -low
T1/2 compared with RIF ([4]; mouse, in vivo, iv, 10 mg/kg): ultra-short
Cmax ([4]; mouse, serum, mice, single oral dose 10 mg/kg, read-out: Cmax of serum): 0.04 µM
SMILES: COC1/C=C/OC2(C)Oc3c(C)c(O)c4c(O)c(c5c(nc6cc(C)ccn65)c4c3C2=O)NC(=O)/C(C)=C\C=C\C(C)C(O)C(C)C(O)C(C)C(OC(C)=O)C1C (stereo not shown) [RIFax, 4-Deoxy-4′-methylpyrido[1′,2′-1,2]imidazo[5,4-c]rifamycin SV]
effect on intestinal or hepatic CYP3A4 (CYP3A4 [1]): no significant effect
effect on the pharmacokinetics of MDZ and of ethinyl estradiol and norgestimate (CYP3A4 [1]): did not alter
CYP3A4 in a human hepatocyte model (CYP3A4 [5]): induction
